What all share (format): cell-based
The test system of experiment [1] is LN229 gliobastoma cells MGMT+/MMR−. Nature of the experiment: Anti-cancer assay, isogenic LN229 cells, nuclei count (Example 43). The note with it: Homo sapiens, read-out: MGMT+ MMR− Activity. The text has this:
(§1) Cytotoxicity of the compounds may be measured in short-term cell viability assays against four isogenic LN229 glioblastoma cell lines engineered to be proficient or deficient in MGMT and/or MMR activity by using short hairpin RNAs (shRNAs) targeting MSH2. This approach allows for determination of the relationship between MGMT status, MMR status, and compound activity. LN229 cells are maintained in Dulbecco's Modified Eagle Medium (DMEM) supplemented with 10% fetal bovine serum, 1% Penicillin/Streptomycin, and 0.1% Fungin. DAY 0: Cells are plated into sterile 96-well plates (Corning Costar 96-well) at a concentration of 500 cells/well using a Multichannel pipettor. Then, assay plates are incubated overnight in a 37° C. 5% CO2 incubator. DAY 1: Compounds are prepared as 50 mM stocks in dimethyl sulfoxide (DMSO) and stored protected from light at room temperature (RT) until use. Prior to compound addition, a two-fold serial dilution of compound stock solutions is performed in DMSO from 30 mM to 0.117 mM in a 96-well Master plate. Vehicle control wells contain DMSO. 97 μL of media is added to each well of a new 96-well plate (Daughter plate) and 3 μL of drug solution from Master plate is added to corresponding wells in the Daughter plate resulting in a 3× plate. Three replicate dilution curves of each compound are run on each assay plate. The final concentration of compounds ranges from 300 μM to 1.171 μM (9-point, 2-fold dilution dose response curve), and the final DMSO concentration is 1%.
(§2) Assay plates are incubated for 120 hours at 37° C. in a humidified 5% CO2 incubator. DAY 5: Following incubation, cells are fixed with 4% paraformaldehyde and stained with Hoechst dye for nuclei visualization. Fixation, staining and washing is performed by using a Thermo Scientific Multidrop Combi. Images are acquired on a BioTek Cytation 5 Cell Imaging Multimode Reader and quantified using Cell Profiler image analysis software. Raw cell count data for test compounds are normalized to percent viability relative to the DMSO vehicle control.
(§3) Isogenic LN229 gliobastoma cells were maintained in Dulbecco's Modified Eagle Medium (DMEM) supplemented with 10% fetal bovine serum, 1% Penicillin/Streptomycin, and 0.1% Fungin. DAY 0: Cells were plated into sterile 96-well plates (Corning Costar 96-well) at a concentration of 500 cells/well using a Multichannel pipettor. Then, assay plates were incubated overnight in a 37° C. 5% CO2 incubator. DAY 1: Compounds were prepared as 50 mM stocks in dimethyl sulfoxide (DMSO) and stored protected from light at room temperature (RT) until use. Prior to compound addition, a two-fold serial dilution of compound stock solutions was performed in DMSO from 30 mM to 0.117 mM in a 96-well Master plate. Vehicle control wells contained DMSO. 97 μL of media was added to each well of a new 96-well plate (Daughter plate) and 3 μL of drug solution from Master plate was added to corresponding wells in the Daughter plate resulting in a 3× plate. Three replicate dilution curves of each compound were run on each assay plate. The final concentration of compounds ranged from 300 μM to 1.171 μM (9-point, 2-fold dilution dose response curve), and the final DMSO concentration was 1%.
(§4) Assay plates were incubated for 120 hours at 37° C. in a humidified 5% CO2 incubator. DAY 5: Following incubation, cells were fixed with 4% paraformaldehyde and stained with Hoechst dye for nuclei visualization. Fixation, staining and washing was performed by using a Thermo Scientific Multidrop Combi. Images were acquired on a BioTek Cytation 5 Cell Imaging Multimode Reader and quantified using Cell Profiler image analysis software. Raw cell count data for test compounds were normalized to percent viability relative to the DMSO vehicle control.

Experiment [2] deals with LN229 gliobastoma cells MGMT+/MMR+. Described as above. Particulars: Homo sapiens, read-out: MGMT+ MMR+ Activity.
From the text: as §1, §2, §3, §4

In experiment [3] the test system is LN229 gliobastoma cells MGMT−/MMR−. Nature of the experiment: Anti-cancer assay, isogenic LN229 cells, nuclei count (Examples 43, 46). Particulars: Homo sapiens, read-out: MGMT− MMR− Activity.
From the text: as §1, §2, §3
(§5) Assay plates were incubated for 120 hours at 37° C. in a humidified 5% CO2 incubator. DAY 5: Following incubation, cells were fixed with 4% paraformaldehyde and stained with Hoechst dye for nuclei visualization. Fixation, staining and washing was performed by using a Thermo Scientific Multidrop Combi. Images were acquired on a BioTek Cytation 5 Cell Imaging Multimode Reader and quantified using Cell Profiler image analysis software. Raw cell count data for test compounds were normalized to percent viability relative to the DMSO vehicle control. […]

In experiment [4] the test system is LN229 gliobastoma cells MGMT−/MMR+. The experiment is described as above. The note with it: Homo sapiens, read-out: MGMT− MMR+ Activity.
From the text: as §1, §2, §3, §5

[5] abbreviates: LN-229, LN229 MGMT+/MMR−, 120 hours.
[6] abbreviates: LN-229, LN229 MGMT+/MMR+, 120 hours.
Setting [7] is: LN-229, LN229 MGMT−/MMR−, 120 hours.
Setting [8] is: LN-229, LN229 MGMT−/MMR+, 120 hours.

Where a name gives a salt, the structure may show the parent alone. Read-outs that look alike come from different tables or passages of the source.

Consider `NC(=O)c1ncn2c(=O)n(COC(C(F)(F)F)C(F)(F)F)nnc12` [Compound I-23], for which the IC50 in experiment [1] (setting [5]), in experiment [2] (setting [6]), in experiment [3] (setting [7]) and in experiment [4] (setting [8]) was > 100 µM in each case.
`O=NN(CCOC(F)(F)F)C(=O)NCCOC(F)(F)F` [IV-2, 1-Nitroso-1,3-bis(2-(trifluoromethoxy)ethyl)urea]: the IC50 in experiment [1] (LN-229, 120 h) is > 100 µM; in experiment [2] (LN-229, 120 h), > 100 µM; in experiment [3] (LN-229, 120 h), 20 to 50 µM; in experiment [4] (LN-229, 120 h), 50 to 100 µM.
For the compound `NC(=O)c1ncn2c(=O)n(CCCOCC(F)(F)F)nnc12` [Compound I-22], the IC50 in experiment [1] (setting [5]), in experiment [2] (setting [6]), in experiment [3] (setting [7]) and in experiment [4] (setting [8]) was > 100 µM in each case.
On to `O=C(Nc1ccccc1)c1ncn2c(=O)n(CCOC(F)(F)F)nnc12` [Compound I-9, 4-Oxo-N-phenyl-3-(2-(trifluoromethoxy)ethyl)-3,4-dihydroimidazo[5,1-d][1,2,3,5]tetrazine-8-carboxamide], for which the IC50 was > 100 µM in experiment [1] (LN-229, 120 h); 50 to 100 µM in experiment [2] (LN-229, 120 h); < 20 µM in experiment [3] (LN-229, 120 h); 20 to 50 µM in experiment [4] (LN-229, 120 h).
For `O=C(Nc1ccccn1)c1ncn2c(=O)n(CCOC(F)(F)F)nnc12` [Compound I-8, 4-Oxo-N-(2-pyridyl)-3-[2-(trifluoromethoxy)ethyl]imidazo[5,1-d][1,2,3,5]tetrazine-8-carboxamide], the IC50 in experiment [1] (setting [5]) was > 100 µM; in experiment [2] (setting [6]), > 100 µM; in experiment [3] (setting [7]) it was 20 to 50 µM; in experiment [4] (setting [8]), 50 to 100 µM.
Consider `CCNC(=O)c1ncn2c(=O)n(CCOC(F)(F)F)nnc12` [Compound I-3, N-Ethyl-4-oxo-3-(2-(trifluoromethoxy)ethyl)-3,4-dihydroimidazo[5,1-d][1,2,3,5]tetrazine-8-carboxamide], for which the IC50 was > 100 µM in experiment [1] (LN-229, 120 h); > 100 µM in experiment [2] (LN-229, 120 h); 50 to 100 µM in experiment [3] (LN-229, 120 h); 50 to 100 µM in experiment [4] (LN-229, 120 h).
With `NCCNC(=O)c1ncn2c(=O)n(CCOC(F)(F)F)nnc12` [Compound I-12, Hydrochloride Salt of N-(2-Aminoethyl)-4-oxo-3-(2-(trifluoromethoxy)ethyl)-3,4-dihydroimidazo[5,1-d][1,2,3,5]tetrazine-8-carboxamide], the IC50 was > 100 µM in experiment [1] (setting [5]), > 100 µM in experiment [2] (setting [6]), 20 to 50 µM in experiment [3] (setting [7]) and 50 to 100 µM in experiment [4] (setting [8]).
Turning to `O=c1n(CCOC(F)(F)F)nnc2c(-c3nc4ccccc4o3)ncn12` [II-4, 8-(benzo[d]oxazol-2-yl)-3-(2-(trifluoromethoxy)ethyl) imidazo[5,1-d][1,2,3,5]tetrazin-4(3H)-one], the IC50 in experiment [1] (setting [5]) is < 20 µM; in experiment [2] (setting [6]), < 20 µM; in experiment [3] (setting [7]), < 20 µM; in experiment [4] (setting [8]) it was 20 to 50 µM.
In the case of `O=c1n(CCOC(F)(F)F)nnc2c(-c3ccccc3)ncn12` [II-5, 8-Phenyl-3-(2-(trifluoromethoxy)ethyl)imidazo[5,1-d][1,2,3,5]tetrazin-4(3H)-one], the IC50 in experiment [1] (setting [5]) was < 20 µM; in experiment [2] (setting [6]), < 20 µM; in experiment [3] (setting [7]), 20 to 50 µM; in experiment [4] (setting [8]) it was < 20 µM.
Regarding `CCOC(=O)c1ncn2c(=O)n(CCOC(F)(F)F)nnc12` [Compound I-30, Ethyl 4-Oxo-3-(2-(trifluoromethoxy)ethyl)-3,4-dihydroimidazo[5,1-d][1,2,3,5]tetrazine-8-carboxylate], the IC50 in experiment [1] (LN-229, 120 h) is > 100 µM; in experiment [2] (LN-229, 120 h), > 100 µM; in experiment [3] (LN-229, 120 h), < 20 µM; in experiment [4] (LN-229, 120 h) it was > 100 µM.
Turning to `NC(=S)c1ncn2c(=O)n(CCOC(F)(F)F)nnc12` [Compound I-31, 4-Oxo-3-(2-(trifluoromethoxy)ethyl)-3,4-dihydroimidazo[5,1-d][1,2,3,5]tetrazine-8-carbothioamide], the IC50 in experiment [1] (setting [5]) was > 100 µM; in experiment [2] (setting [6]) it was > 100 µM; in experiment [3] (setting [7]), < 20 µM; in experiment [4] (setting [8]) it was 20 to 50 µM.
Turning to `N=C(N)c1ncn2c(=O)n(CCOC(F)(F)F)nnc12` [Compound I-34, 4-Oxo-3-(2-(trifluoromethoxy)ethyl)-3,4-dihydroimidazo[5,1-d][1,2,3,5]tetrazine-8-carboximidamide], the IC50 in experiment [1] (setting [5]) is 50 to 100 µM; in experiment [2] (setting [6]), 50 to 100 µM; in experiment [3] (setting [7]), < 20 µM; in experiment [4] (setting [8]) it was < 20 µM.
With `O=c1n(CCOC(F)(F)F)nnc2c(Cl)ncn12` [Compound I-39, 8-Chloro-3-(2-(trifluoromethoxy)ethyl)imidazo[5,1-d][1,2,3,5]tetrazin-4(3H)-one], the IC50 is 20 to 50 µM in experiment [1] (setting [5]), < 20 µM in experiment [2] (setting [6]), < 20 µM in experiment [3] (setting [7]) and < 20 µM in experiment [4] (setting [8]).
On to `O=C(NC1CCCC1)c1ncn2c(=O)n(CCOC(F)(F)F)nnc12` [Compound I-5, N-Cyclopentyl-4-oxo-3-(2-(trifluoromethoxy)ethyl)-3,4-dihydroimidazo[5,1-d][1,2,3,5]tetrazine-8-carboxamide], for which the IC50 is > 100 µM in experiment [1] (setting [5]), > 100 µM in experiment [2] (setting [6]), 20 to 50 µM in experiment [3] (setting [7]) and 50 to 100 µM in experiment [4] (setting [8]).
`O=C(NC1CC1)c1ncn2c(=O)n(CCOC(F)(F)F)nnc12` [Compound I-6, N-Cyclopropyl-4-oxo-3-(2-(trifluoromethoxy)ethyl)-3,4-dihydroimidazo[5,1-d][1,2,3,5]tetrazine-8-carboxamide]: the IC50 is < 20 µM in experiment [1] (setting [5]), 20 to 50 µM in experiment [2] (setting [6]), 20 to 50 µM in experiment [3] (setting [7]) and < 20 µM in experiment [4] (setting [8]).
`O=c1n(CCOC(F)(F)F)nnc2c(-c3nc4ccccc4[nH]3)ncn12` [II-1, 8-(1H-Benzo[d]imidazol-2-yl)-3-(2-(trifluoromethoxy)ethyl)imidazo[5,1-d][1,2,3,5]tetrazin-4(3H)-one]: the IC50 in experiment [1] (setting [5]) was 50 to 100 µM; in experiment [2] (setting [6]), < 20 µM; in experiment [3] (setting [7]), > 100 µM; in experiment [4] (setting [8]) it was < 20 µM.
As to `CN1CCN(C(=O)c2ncn3c(=O)n(CCOC(F)(F)F)nnc23)CC1` [Compound I-10, 8-(4-Methylpiperazine-1-carbonyl)-3-(2-(trifluoromethoxy)ethyl)imidazo[5,1-d][1,2,3,5]tetrazin-4(3H)-one], the IC50 in experiment [1] (setting [5]) was 50 to 100 µM; in experiment [2] (setting [6]), 50 to 100 µM; in experiment [3] (setting [7]), 20 to 50 µM; in experiment [4] (setting [8]) it was 20 to 50 µM.
In the case of `NC(=O)c1ncn2c(=O)n(CCOC(F)F)nnc12` [Compound I-44], the IC50 in experiment [1] (setting [5]), in experiment [2] (setting [6]), in experiment [3] (setting [7]) and in experiment [4] (setting [8]) was > 100 µM each time.
Take `CNC(=O)c1ncn2c(=O)n(CCOC(F)(F)F)nnc12` [Compound I-26]: the IC50 in experiment [1] (setting [5]) was > 100 µM; in experiment [2] (setting [6]), > 100 µM; in experiment [3] (setting [7]) it was < 20 µM; in experiment [4] (setting [8]), 20 to 50 µM.
